Test results published in the NIST ThermoML archive (doi:10.1021/je301284x).
± gives the expanded uncertainty stated by the source.

Legend:
[1] = Molar enthalpy of transition or fusion; settings: Crystal; DSC
[2] = for mass density / electrical conductivity / viscosity: 101.33 kPa, Liquid; for mass density: Vibrating tube method; for viscosity: Concentric cylinders viscometry; for Normal melting temperature: Crystal; for Normal melting temperature / Glass transition temperature: DTA

C=CC[NH+](C)CC=C.O=S(=O)([O-])C(F)(F)F
Settings | Glass transition temperature [°C] | Molar enthalpy of transition or fusion [kJ/mol] | Normal melting temperature [°C]
[1] | – | 11 ± 1 | –
[2] | -88.00 ± 5 | – | -19.00 ± 1

[2]
Settings | electrical conductivity [S/m] | mass density [kg/m3] | viscosity [mPa·s]
288.15 K | – | 1268 ± 27 | –
293.15 K | – | 1261 ± 26 | –
298.15 K | – | 1253 ± 26 | –
303.15 K | 0.469 ± 0.009 | 1246 ± 26 | 38.5 ± 1.3
308.15 K | – | 1239 ± 26 | –
313.15 K | – | 1231 ± 26 | –
323.15 K | 0.893 ± 0.018 | – | 19.7 ± 0.6
343.15 K | 1.43 ± 0.03 | – | 11.6 ± 0.4
363.15 K | 2.06 ± 0.04 | – | 7.61 ± 0.25
383.15 K | 2.74 ± 0.06 | – | 5.39 ± 0.18
403.15 K | 3.54 ± 0.07 | – | –
423.15 K | 4.39 ± 0.09 | – | –
443.15 K | 5.21 ± 0.1 | – | –

C=CC[NH+](CC)CC.O=S(=O)([O-])C(F)(F)F [N,N-diethylprop-2-en-1-aminium trifluoromethanesulfonate]
Settings | Glass transition temperature [°C] | Molar enthalpy of transition or fusion [kJ/mol] | Normal melting temperature [°C]
[1] | – | 21 ± 2 | –
[2] | -99.00 ± 6 | – | -14.00 ± 1

[2]
Settings | electrical conductivity [S/m] | mass density [kg/m3] | viscosity [mPa·s]
288.15 K | – | 1270 ± 27 | –
293.15 K | – | 1263 ± 26 | –
298.15 K | – | 1255 ± 26 | –
303.15 K | 0.419 ± 0.008 | 1247 ± 26 | 51 ± 1.7
308.15 K | – | 1240 ± 26 | –
313.15 K | – | 1232 ± 26 | –
323.15 K | 0.785 ± 0.016 | – | 25.5 ± 0.8
343.15 K | 1.26 ± 0.03 | – | 14.9 ± 0.5
363.15 K | 1.81 ± 0.04 | – | 9.64 ± 0.31
383.15 K | 2.43 ± 0.05 | – | 6.7 ± 0.22
403.15 K | 3.17 ± 0.06 | – | 4.94 ± 0.16
423.15 K | 3.91 ± 0.08 | – | 3.87 ± 0.13
443.15 K | 4.71 ± 0.09 | – | –

CCC[NH+](CC)CC.O=S(=O)([O-])C(F)(F)F [N,N-diethylpropan-1-aminium trifluoromethanesulfonate]
Settings | Molar enthalpy of transition or fusion [kJ/mol] | Normal melting temperature [°C]
[1] | 21 ± 2 | –
[2] | – | -14.00 ± 1

[2]
Settings | electrical conductivity [S/m] | mass density [kg/m3] | viscosity [mPa·s]
288.15 K | – | 1237 ± 26 | –
293.15 K | – | 1229 ± 26 | –
298.15 K | – | 1222 ± 26 | –
303.15 K | 0.384 ± 0.008 | 1215 ± 25 | 54.3 ± 1.8
308.15 K | – | 1208 ± 25 | –
313.15 K | – | 1201 ± 25 | –
323.15 K | 0.71 ± 0.014 | – | 26.8 ± 0.9
343.15 K | 1.13 ± 0.02 | – | 15.3 ± 0.5
363.15 K | 1.71 ± 0.03 | – | 9.76 ± 0.32
383.15 K | 2.22 ± 0.04 | – | 6.71 ± 0.22
403.15 K | 2.88 ± 0.06 | – | 4.87 ± 0.16
423.15 K | 3.57 ± 0.07 | – | 3.73 ± 0.12
443.15 K | 4.31 ± 0.09 | – | –

C=CC[NH+](C)C.O=S(=O)([O-])C(F)(F)F [N,N-dimethylprop-2-en-1-aminium trifluoromethanesulfonate]
Settings | Molar enthalpy of transition or fusion [kJ/mol] | Normal melting temperature [°C]
[1] | 21 ± 2 | –
[2] | – | 16.00 ± 1

[2]
Settings | electrical conductivity [S/m] | mass density [kg/m3] | viscosity [mPa·s]
288.15 K | – | 1318 ± 28 | –
293.15 K | – | 1311 ± 28 | –
298.15 K | – | 1303 ± 27 | –
303.15 K | 0.968 ± 0.019 | 1295 ± 27 | 28.8 ± 0.9
308.15 K | – | 1288 ± 27 | –
313.15 K | – | 1280 ± 27 | –
323.15 K | 1.74 ± 0.04 | – | 16.4 ± 0.5
343.15 K | 2.65 ± 0.05 | – | 10.4 ± 0.3
363.15 K | 3.73 ± 0.07 | – | 7.11 ± 0.23
383.15 K | 4.92 ± 0.1 | – | 5.18 ± 0.17
403.15 K | 6.19 ± 0.12 | – | 3.95 ± 0.13
423.15 K | 7.48 ± 0.15 | – | 3.17 ± 0.1
443.15 K | 8.82 ± 0.18 | – | –

CCC[NH+](C)C.O=S(=O)([O-])C(F)(F)F [N,N-dimethylpropan-1-aminium trifluoromethanesulfonate]
Settings | Molar enthalpy of transition or fusion [kJ/mol] | Normal melting temperature [°C]
[1] | 20 ± 2 | –
[2] | – | 20.00 ± 1

[2]
Settings | electrical conductivity [S/m] | mass density [kg/m3] | viscosity [mPa·s]
288.15 K | – | 1291 ± 27 | –
293.15 K | – | 1284 ± 27 | –
298.15 K | – | 1276 ± 27 | –
303.15 K | 0.901 ± 0.018 | 1269 ± 27 | 33.2 ± 1.1
308.15 K | – | 1262 ± 26 | –
313.15 K | – | 1254 ± 26 | –
323.15 K | 1.57 ± 0.03 | – | 18 ± 0.6
343.15 K | 2.39 ± 0.05 | – | 11 ± 0.4
363.15 K | 3.25 ± 0.07 | – | 7.42 ± 0.24
383.15 K | 4.29 ± 0.09 | – | 5.32 ± 0.17
403.15 K | 5.3 ± 0.11 | – | 4.04 ± 0.13
423.15 K | 6.4 ± 0.13 | – | 3.19 ± 0.1
443.15 K | 7.68 ± 0.15 | – | –

CCC[NH+](C)CCC.O=S(=O)([O-])C(F)(F)F [N-methyl-N-propylpropan-1-aminium trifluoromethanesulfonate]
Settings | Molar enthalpy of transition or fusion [kJ/mol] | Normal melting temperature [°C]
[1] | 14 ± 2 | –
[2] | – | 17.00 ± 1

[2]
Settings | electrical conductivity [S/m] | mass density [kg/m3] | viscosity [mPa·s]
293.15 K | – | 1218 ± 25 | –
298.15 K | – | 1211 ± 25 | –
303.15 K | 0.415 ± 0.008 | 1203 ± 25 | 48.7 ± 1.6
308.15 K | – | 1196 ± 25 | –
313.15 K | – | 1189 ± 25 | –
323.15 K | 0.772 ± 0.015 | – | 23.9 ± 0.8
343.15 K | 1.23 ± 0.03 | – | 13.6 ± 0.4
363.15 K | 1.81 ± 0.04 | – | 8.63 ± 0.28
383.15 K | 2.48 ± 0.05 | – | 5.96 ± 0.19
403.15 K | 3.18 ± 0.06 | – | 4.4 ± 0.14
423.15 K | 4.04 ± 0.08 | – | 3.44 ± 0.11
443.15 K | 4.88 ± 0.1 | – | –

CC[NH+](C)CC.O=S(=O)([O-])C(F)(F)F [diethylmethylammonium trifluoromethanesulfonate]
Settings | Molar enthalpy of transition or fusion [kJ/mol] | Normal melting temperature [°C]
[1] | 16 ± 2 | –
[2] | – | -6.00 ± 1

[2]
Settings | electrical conductivity [S/m] | mass density [kg/m3] | viscosity [mPa·s]
288.15 K | – | 1299 ± 27 | –
293.15 K | – | 1292 ± 27 | –
298.15 K | – | 1284 ± 27 | –
303.15 K | 0.833 ± 0.017 | 1277 ± 27 | 36.9 ± 1.2
308.15 K | – | 1270 ± 27 | –
313.15 K | – | 1262 ± 26 | –
323.15 K | 1.45 ± 0.03 | – | 19.4 ± 0.6
343.15 K | 2.15 ± 0.04 | – | 12.1 ± 0.4
363.15 K | 3.15 ± 0.06 | – | 8.13 ± 0.26
383.15 K | 3.91 ± 0.08 | – | 5.82 ± 0.19
403.15 K | 4.73 ± 0.09 | – | 4.41 ± 0.14
423.15 K | 5.46 ± 0.11 | – | 3.48 ± 0.11
443.15 K | 5.97 ± 0.12 | – | –
